Reference: article PMC6168434 (European journal of medicinal chemistry, 2018)

Tests used:
[1] = test system: cancer cells; assay: Western blot and flow cytometry analysis of treated cancer cells; assay type: cell-based; conditions: Figure S4
[2] = test system: MCF7; conditions: MCF7, relative to CysB; cited from earlier work
[3] = test system: hcCP β5 in MCF7 cells; assay: Cellular infiltration: β5 inhibition in intact versus lysed MCF7 cells; assay type: cell-based, human; conditions: one hour treatment, relative to 1
[4] = molecular target: human immunoproteasome hiβ5 (Homo sapiens, UniProt P20618+P28062); assay: Purified human immunoproteasome β5; assay type: biochemical; conditions: purified human immunoproteasomes 8 μg/mL, Suc-LLVY-AMC
[5] = molecular target: yeast 20S proteasome (yCP) yβ5 (Saccharomyces cerevisiae, UniProt P23724+P30656); assay: Purified yeast proteasome inhibition, yβ5; assay type: biochemical

SMILES | apoptosis (flow cytometry) [1] | cell cycle (flow cytometry) [1] | ubiquitinated proteins (Western blot) [1] | times more cytotoxic than CysB [2] | times more capable of crossing the cell membrane than 1 [3] | isoform preference hiβ5 versus yβ5 [4] | fold decreased IC50 for yβ5 versus yβ1 [5]
CC(C)[C@H](NC(=O)[C@@H]1OC(=O)[C@H]1C(C)C)C(=O)N[C@H](C(=O)OCc1ccccc1)C(C)C [Compound 1] | induced apoptosis | arrested cells in the G2/M phase | accumulation of ubiquitinated proteins | over 10 times |  |  | 
CC[C@H](C)[C@@H]1C(=O)O[C@H]1C(=O)N[C@H](C(=O)N[C@H](C(=O)OCc1ccccc1)C(C)C)C(C)C [Compound 2, benzyl((2R,3S)-3-((S)-sec-butyl)-4-oxooxetane-2-carbonyl)-L-valyl-L-valinate] | induced apoptosis | arrested cells in the G2/M phase | accumulation of ubiquitinated proteins |  | approximately 10 times | slight preference for hiβ5 | 
CC[C@H](C)[C@@H]1C(=O)O[C@H]1C(=O)N[C@H](C(=O)N[C@@H](COCc1ccccc1)C(=O)OCc1ccccc1)C(C)C [Compound 5k, benzylO-benzyl-N-(((2R,3S)-3-((S)-sec-butyl)-4-oxooxetane-2-carbonyl)-L-valyl)-L-serinate] |  |  |  |  |  | slight preference for hiβ5 | 
CC(C)[C@H](NC(=O)[C@@H](NC(=O)[C@@H]1OC(=O)[C@H]1C(C)C)C(C)C)C(=O)O [Cystargolide B, reference compound] |  |  |  |  |  |  | 50 fold
